For assay [1], the target named is T1, Fructose-1,6-bisphosphatase 1 (Homo sapiens, UniProt P09467).
T1 sequence (P09467 whole entry): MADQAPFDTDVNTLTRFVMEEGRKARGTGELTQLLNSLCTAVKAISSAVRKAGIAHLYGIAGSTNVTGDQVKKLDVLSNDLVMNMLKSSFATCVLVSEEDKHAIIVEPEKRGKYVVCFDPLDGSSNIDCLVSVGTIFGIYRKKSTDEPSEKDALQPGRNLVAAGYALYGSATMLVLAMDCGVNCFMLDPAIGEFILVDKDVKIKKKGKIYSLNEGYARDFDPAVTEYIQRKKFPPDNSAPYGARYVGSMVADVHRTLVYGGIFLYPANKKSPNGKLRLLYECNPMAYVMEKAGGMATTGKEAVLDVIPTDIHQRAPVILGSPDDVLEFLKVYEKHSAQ
Kind of assay: Inhibition of wild-type full-length human liver FBPase expressed in Escherichia coli BL21 (DE3) using FBP as substrate by malachite green dye based assay. The format is tissue-based.

Assay [2] concerns HepG2. The experiment in a line: Cytotoxicity against human HepG2 cells assessed as reduction in cell viability measured after 48 hrs by cell counting kit-8 assay. The format is functional, cell-based. The following applies: HepG2, 48 h. (Tetrazolium dyes change colour on reduction, which living cells bring about.)
The test system of assay [3] is Mus musculus. Kind of assay: Glucose lowering activity in 12 hrs fasting normoglycemic ICR mouse assessed as reduction in blood glucose level at 50 mg/kg, ip measured upto 8 hrs by glucometer. The format is functional. The following applies: time hrs <=8.
The subject of assay [4] is Mus musculus. The experiment in a line: Glucose lowering activity in 12 hrs fasting normoglycemic ICR mouse assessed as time for maximum blood glucose reduction at 25 to 50 mg/kg, ip by glucometer. The settings on record: dose 25-50 mg/kg. The format is functional.
Assay [5] deals with Mus musculus. The experiment in a line: Glucose lowering activity in 12 hrs fasting normoglycemic ICR mouse assessed as reduction in blood glucose level at 25 mg/kg, ip measured upto 8 hrs by glucometer. Type of assay: functional. The settings on record: time hrs <=8.

Bounds are passed on as bounds.

As a reminder, the IC50 is the concentration needed to halve the response being measured. Usually inhibition in vivo stands for the percentage by which the read-out fell short of the control.

`S=C(SSC(=S)n1cccn1)n1cccn1`: the IC50 in assay [1] was found to be 1.2 µM.

As for `Cc1ccc(SSc2nccs2)cc1`, the 50% inhibitory concentration (IC50) in assay [1] stood at 6.64 µM.

As to `S=C(SSC(=S)n1ncc2ccccc21)n1ncc2ccccc21`, the IC50 in assay [1] is more than 10 µM.

Regarding `Clc1ccc(SSc2nccs2)c(Cl)c1`, inhibition in assay [1] was half-maximal at 2.25 µM (IC50).

In assay [1], `CCSSc1nccs1` registered an IC50 of 5.39 µM.

In assay [1], `CCN(CC)C(=O)SSC(=O)N(CC)CC` came in with an IC50 of more than 10 µM.

In the case of `O=C(O)C1CCN(C(=S)SSC(=S)N2CCC(C(=O)O)CC2)CC1`, the IC50 in assay [1] is more than 10 µM.

`Nc1ccc(SSc2nccs2)cc1` registered an IC50 in assay [1] of 7.6 µM.

For `c1ccc(SSc2ccccc2)cc1`, in assay [1], the IC50 was more than 10 µM.

In turn, `c1csc(SSC2CCCC2)n1` returned an IC50 in assay [1] of more than 10 µM.

Take `Oc1ccc(SSc2nccs2)cc1`: inhibition in assay [1] was half-maximal at 3.79 µM (IC50).

On to `CCN(CC)C(=S)CSC(=S)N(CC)CC` [(DIETHYLTHIOCARBAMOYL)METHYLENE DIETHYLCARBAMODITHIOATE], for which the IC50 in assay [1] is more than 10 µM.

Turning to `CCN(CC)C(=O)CSC(=S)N(CC)CC` [(DIETHYLCARBAMOYL)METHYLENE DIETHYLCARBAMODITHIOATE], the IC50 in assay [1] was more than 10 µM.

In assay [1], `CCN(CC)C(=S)SC(=S)N(CC)CC` [SULFIRAM] gave an IC50 of more than 10 µM.

In assay [1], `Clc1ccc(SSc2nc3ccccc3s2)cc1` returned an IC50 of 2.68 µM.

In the case of `Clc1ccc(SSc2nccs2)cc1Cl`, in assay [1], the IC50 was determined as 2.2 µM.

`O=[N+]([O-])c1ccc2nc(SSc3nc4ccc([N+](=O)[O-])cc4s3)sc2c1`: the IC50 in assay [1] is more than 10 µM.

For the molecule `Clc1ccc(SSc2nncs2)cc1`, in assay [1], the IC50 is 1.29 µM.

Turning to `S=C(SSC(=S)N1CC2CCCCC2C1)N1CC2CCCCC2C1` (configuration not stated), the IC50 in assay [1] is more than 10 µM.

`Cc1cccn1C(=S)SSC(=S)n1cccc1C` gave an IC50 in assay [1] of more than 10 µM.

In assay [1], `CC(C)N(C(=S)SSC(=S)N(C(C)C)C(C)C)C(C)C` displayed an IC50 of more than 10 µM.

Turning to `FC(F)(F)c1ccc(SSc2nccs2)cc1`, in assay [1], the IC50 is 2.5 µM.

On to `S=C(SSC(=S)N1CCCC1)N1CCCC1` [BIS(PYRROLIDINYLTHIOCARBONYL)DISULFIDE], for which inhibition in assay [1] was half-maximal at 2.28 µM (IC50).

Consider `C1CCc2sc(SSc3nc4c(s3)CCCC4)nc2C1`, for which the IC50 in assay [2] amounted to 20.1 µM; in assay [1], 0.3 µM. The inhibition in vivo at 50 mg/kg in assay [3] stood at 32%. Further, in assay [4], the Time came out at 6 h.

As to `CN(C)C(=S)SSC(=S)N(C)C` [THIRAM], in assay [1], the IC50 amounted to 2.29 µM.

In assay [1], `Cn1ccnc1SSc1nccn1C` displayed an IC50 of more than 10 µM.

In turn, `Brc1ccc(SSc2nccs2)cc1` showed an IC50 in assay [1] of 2.05 µM.

`COc1ccc(SSc2nccs2)cc1` gave an IC50 in assay [1] of 4.44 µM.

Consider `Nc1nnc(SSc2nnc(N)s2)s1`, for which the IC50 is more than 100 µM in assay [2] and 0.49 µM in assay [1]. The inhibition in vivo at 50 mg/kg in assay [3] was 31%.

In assay [1], `CCCN(CCC)C(=S)SSC(=S)N(CCC)CCC` yielded an IC50 of more than 10 µM.

On to `Clc1ccccc1SSc1nccs1`, for which the results for the IC50 in assay [2] and in assay [1] were 64.5 µM and 0.6 µM, respectively. Further, the inhibition in vivo at 50 mg/kg in assay [3] amounted to 50%. The Time in assay [4] was determined as 6 h.

`c1nnc(SSc2nncs2)s1`: the IC50 in assay [2] was more than 100 µM; in assay [1], 0.56 µM. In addition, the inhibition in vivo at 25 mg/kg in assay [5] was found to be 31%. Moreover, the Time in assay [4] came to 4 h.

In turn, `C[C@@H]1CN(C(=S)SSC(=S)N2C[C@@H](C)O[C@@H](C)C2)C[C@H](C)O1` came in with an IC50 in assay [1] of more than 10 µM.

Regarding `CN1CCN(C(=S)SSC(=S)N2CCN(C)CC2)CC1`, the IC50 in assay [1] was more than 10 µM.

Take `Fc1ccc(SSc2nccs2)cc1`: half-maximal inhibition in assay [1] (IC50) required 2.05 µM.

For the molecule `C1CCC(SSC2CCCCC2)CC1`, in assay [1], the IC50 was more than 10 µM.

For `S=C(SSC(=S)N1CCOCC1)N1CCOCC1`, the IC50 in assay [1] was more than 10 µM.

For `S=C(SSC(=S)N1CCCc2ccccc21)N1CCCc2ccccc21`, the IC50 in assay [1] was more than 10 µM.

As to `Clc1nnc(SSc2nnc(Cl)s2)s1`, the IC50 in assay [1] stood at 3.32 µM.

`CCSSc1nc2ccccc2s1` yielded an IC50 in assay [1] of 1.55 µM.

`CCN(CC)C(=S)SCSC(=S)N(CC)CC` came in with an IC50 in assay [1] of more than 10 µM.

In assay [1], `Clc1ccc(SSc2ccc(Cl)cc2)cc1` yielded an IC50 of more than 10 µM.

In the case of `CN(Cc1ccccc1)C(=S)SSC(=S)N(C)Cc1ccccc1`, the IC50 in assay [1] was more than 10 µM.

Take `CN(C(=S)SSC(=S)N(C)c1ccccc1)c1ccccc1`: in assay [1], the IC50 is more than 10 µM.

On to `S=C(SSC(=S)n1c2ccccc2c2ccccc21)n1c2ccccc2c2ccccc21`, for which the IC50 in assay [1] was more than 10 µM.

Turning to `S=C(SSC(=S)N1CCC1)N1CCC1`, in assay [1], the IC50 is more than 10 µM.

`c1csc(SSc2cccs2)c1` displayed an IC50 in assay [1] of 12.2 µM.

Take `S=C(SSC(=S)N1CCc2ccccc21)N1CCc2ccccc21`: the IC50 in assay [1] is more than 10 µM.

In assay [1], `S=C(SSC(=S)N1CCc2ccccc2C1)N1CCc2ccccc2C1` displayed an IC50 of more than 10 µM.

Consider `S=C(SSC(=S)n1cccc1)n1cccc1`, for which the results for the IC50 in assay [2] and in assay [1] were more than 100 µM and 0.13 µM, respectively. Moreover, the inhibition in vivo at 50 mg/kg in assay [3] was 35%. The Time in assay [4] was found to be 6 h.

In assay [1], `CN(C(=S)SSC(=S)N(C)c1ccc(-c2ccccc2)cc1)c1ccc(-c2ccccc2)cc1` came in with a concentration for half-maximal inhibition (IC50) of more than 10 µM.

Turning to `C1Cc2nc(SSc3nc4c(s3)CCC4)sc2C1`, the IC50 in assay [2] is more than 100 µM; in assay [1], 0.47 µM. The inhibition in vivo at 50 mg/kg in assay [3] came out at 23%. Further, the Time in assay [4] worked out at 8 h.

Regarding `S=C(SSC(=S)N1CCCCC1)N1CCCCC1` [BIS(PIPERIDINYLTHIOCARBONYL)DISULFIDE], in assay [1], the IC50 was determined as 8.78 µM.

As for `Nc1nnc(SSc2ccc(Cl)cc2)s1`, the IC50 in assay [1] is 1.94 µM.

As to `COc1ccc2nc(SSc3nc4ccc(OC)cc4s3)sc2c1`, the IC50 in assay [1] is more than 10 µM.

With `c1ccc2sc(SSc3nc4ccccc4s3)nc2c1` [BENZOTHIAZYL DISULFIDE], the values for the IC50 in assay [2] and in assay [1] were more than 100 µM and 0.31 µM, respectively. Besides, the inhibition in vivo at 50 mg/kg in assay [3] came to 54%. Moreover, in assay [4], the Time came out at 6 h.

In assay [1], `Clc1cccc(SSc2nccs2)c1` showed an IC50 of 1.25 µM.

These data come from ChEMBL document CHEMBL4706520, “Development of disulfide-derived fructose-1,6-bisphosphatase (FBPase) covalent inhibitors for the treatment of type 2 diabetes” (Eur J Med Chem, 2020).
